Laboratory results taken from patent publication US12606541B2, “PPARg modulators and methods of use” (Eisai R&D Management Co., Ltd., priority 2020, dated 2026).
Like-named read-outs stand apart in the source and are kept apart here.

Legend:
[1] = target: T1, His6-TEV-PPARγ-(234-505) (Homo sapiens, UniProt P37231); assay: TR-FRET Assay to Measure Co-R Peptide Recruitment to PPARγ; assay type: biochemical; settings: Co-R peptide (SMRT-ID2) recruitment; top final concentration 20 μM; read-out: TR-FRET i-Ag; AC50
T1 construct: The His6-TEV-PPARγ-(234-505) protein for assay was expressed and purified; TEV cleavage site (N); made in house
T1 sequence (P37231 234-505): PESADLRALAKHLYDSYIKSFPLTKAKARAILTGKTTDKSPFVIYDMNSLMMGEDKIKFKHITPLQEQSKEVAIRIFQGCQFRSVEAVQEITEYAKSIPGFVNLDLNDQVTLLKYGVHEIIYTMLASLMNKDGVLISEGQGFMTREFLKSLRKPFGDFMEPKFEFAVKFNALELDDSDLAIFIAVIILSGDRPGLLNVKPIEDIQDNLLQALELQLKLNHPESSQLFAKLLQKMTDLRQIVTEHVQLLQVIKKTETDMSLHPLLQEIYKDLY
Outline: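 His-tagged PPARγ (or controls) was preincubated with compound for 20 minutes at room temperature, then 5 nM anti-His terbium antibody and 200 nM FITC-labeled SMRT-ID2 corepressor peptide (final) were added for a further hour. TR-FRET signal was normalized to percent response using 500 nM T0070907 and DMSO controls.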

[2] = system: UM-UC-9 engineered cells; assay: Cell proliferation / short-term viability assay, CellTiter-Glo 144 h; assay type: cell-based, human; settings: read-out: CTGlo 144 h UMUC9.5, G150
Outline: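 UM-UC-9 engineered assay-ready cells seeded at 500 cells/well in high-glucose DMEM/10% FBS, treated from dose-response plates, grown at 37° C, 5% CO2. CellTiter-Glo 2.0 luminescence read on day 7, with a day-0 pretreatment plate as T0 reference and DMSO wells as negative control.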

Structure (SMILES)	AC50 [1] [nM]	IC50 ([2]; Homo sapiens, UM-UC-9, 144 h) [nM]	IC50 [2] [nM]
COc1cc(-c2cc(C(=O)N3CCC(C(=O)NC4COc5ccc(Cl)cc54)CC3)n[nH]2)c(Cl)cn1 (stereo not drawn) [Example 208, N-(5-chloro-2,3-dihydrobenzofuran-3-yl)-1-(5-(5-chloro-2-methoxypyridin-4-yl)-1H-pyrazole-3-carbonyl)piperidine-4-carboxamide]	34.7	290	–
COc1cc(-c2cc(C(=O)N3CCC(C(=O)NC4CN(CC5(O)CC5)CC4(F)F)CC34CC4)n[nH]2)c(F)cn1 (mixture of isomers) [Example 470, (S)—N—((R)-4,4-difluoro-1-((1-hydroxycyclopropyl)methyl)pyrrolidin-3-yl)-4-(3-(5-fluoro-2-methoxypyridin-4-yl)-1-pyrazole-5-carbonyl)-4-azaspiro[2.5]octane-7-carboxamide and (S)—N—((S)-4,4-difluoro-1-((1-hydroxycyclopropyl)methyl)pyrrolidin-3-yl)-4-(3-(5-fluoro-2-methoxypyridin-4-yl)-1H-pyrazole-5-carbonyl)-4-azaspiro[2.5]octane-7-carboxamide]	112	–	897
COc1cc(-c2cc(C(=O)N3CCC(C(=O)NCc4cc(Cl)ccc4F)CC3)n[nH]2)c(Cl)cn1 [Example 154, N-(5-chloro-2-fluorobenzyl)-1-(5-(5-chloro-2-methoxypyridin-4-yl)-1H-pyrazole-3-carbonyl)piperidine-4-carboxamide]	77.4	166	–
COc1cc(-c2cc(C(=O)N3CCC(C(=O)N[C@@H]4C[C@H]4c4ccccc4)CC3)n[nH]2)c(Cl)cn1 [Example 133, 1-(5-(5-chloro-2-methoxypyridin-4-yl)-1H-pyrazole-3-carbonyl)-N-((1R,2S)-2-phenylcyclopropyl)piperidine-4-carboxamide]	292	1740	–
COc1cc(-c2cc(C(=O)N3[C@@H]4CC[C@H]3C[C@@H](C(=O)NCc3cccc(Cl)c3)C4)n[nH]2)c(F)cn1 [Example 160-B, (1R,3r,5S)—N-(3-chlorobenzyl)-8-(5-(5-fluoro-2-methoxypyridin-4-yl)-1H-pyrazole-3-carbonyl)-8-azabicyclo[3.2.1]octane-3-carboxamide]	14200	> 10000	–
Cc1cc(-c2cc(C(=O)N3CCC(C(=O)NCc4cccc(Cl)c4)CC3)n[nH]2)c(F)cn1 [Example 267, N-[(3-chlorophenyl)methyl]-1-[5-(5-fluoro-2-methylpyridin-4-yl)-1H-pyrazole-3-carbonyl]piperidine-4-carboxamide]	14.2	104	–
COc1cc(-c2cc(C(=O)N3C4COCC3CC(C(=O)N[C@H]3CC[C@@](O)(C(F)(F)F)CC3)C4)n[nH]2)c(F)cn1 (stereo partly drawn) [Example 282, 9-(5-(5-fluoro-2-methoxypyridin-4-yl)-1H-pyrazole-3-carbonyl)-N-((1r,4r)-4-hydroxy-4-(trifluoromethyl)cyclohexyl)-3-oxa-9-azabicyclo[3.3.1]nonane-7-carboxamide]	59	293	–
COc1cc(-c2cc(C(=O)N3CCC(C(=O)NCc4nccc(C(F)(F)F)n4)CC3)n[nH]2)c(Cl)cn1 [Example 209, 1-(5-(5-chloro-2-methoxypyridin-4-yl)-1H-pyrazole-3-carbonyl)-N-((4-(trifluoromethyl)pyrimidin-2-yl)methyl)piperidine-4-carboxamide]	319	2370	–
CO[C@]1(C(F)(F)F)CC[C@@H](NC(=O)[C@H]2CCN(C(=O)c3cc(-c4cc(C)ncn4)[nH]n3)C3(CC3)C2)CC1 (single isomer, unassigned) [Example 309-A]	2.9	5.4	–
COc1cc(-c2cc(C(=O)N3CCC(C(=O)NCc4ncccc4C(F)(F)F)CC3)n[nH]2)c(Cl)cn1 [Example 130, 1-(5-(5-chloro-2-methoxypyridin-4-yl)-1H-pyrazole-3-carbonyl)-N-((3-(trifluoromethyl)pyridin-2-yl)methyl)piperidine-4-carboxamide]	75.9	685	–
COc1cc(-c2cc(C(=O)N3CCC(C(=O)NCc4c(F)ccc(F)c4F)CC3)n[nH]2)c(Cl)cn1 [Example 123, 1-(5-(5-chloro-2-methoxypyridin-4-yl)-1H-pyrazole-3-carbonyl)-N-(2,3,6-trifluorobenzyl)piperidine-4-carboxamide]	12.8	100	–

Now from value to molecule, other results behind:

AC50 [1] [nM]	Structure (SMILES)	IC50 ([2]; Homo sapiens, UM-UC-9, 144 h) [nM]	IC50 [2] [nM]
12.7	COc1cc(-c2cc(C(=O)N3CCC(C(=O)NC4CCC(O)(C(F)(F)F)CC4)CC3C(F)(F)F)n[nH]2)c(F)cn1 (single isomer, unassigned) [Example 367-B]	–	6.8
5	COc1cc(-c2cc(C(=O)N3CC[C@H](C(=O)Nc4cnn5ccc(Cl)nc45)CC34CC4)n[nH]2)c(F)cn1 [Example 430, (S)—N-(5-chloropyrazolo[1,5-a]pyrimidin-3-yl)-4-(5-(5-fluoro-2-methoxypyridin-4-yl)-1H-pyrazole-3-carbonyl)-4-azaspiro[2.5]octane-7-carboxamide]	8.4	–
5.3	COc1cc(-c2cc(C(=O)N3CC[C@H](C(=O)Nc4ccc5c(c4)COB5O)CC34CC4)[nH]n2)c(F)cn1 [Example 523, (S)-4-(3-(5-fluoro-2-methoxypyridin-4-yl)-1H-pyrazole-5-carbonyl)-N-(1-hydroxy-1,3-dihydrobenzo[c][1,2]oxaborol-5-yl)-4-azaspiro[2.5]octane-7-carboxamide]	54.3	–
1.8	COc1cc(-c2cc(C(=O)N3CC[C@H](C(=O)NCc4ncc(N5CCN(C)CC5)cc4Cl)CC34CC4)n[nH]2)c(F)cn1 [Example 521, (S)—N-((3-chloro-5-(4-methylpiperazin-1-yl)pyridin-2-yl)methyl)-4-(5-(5-fluoro-2-methoxypyridin-4-yl)-1H-pyrazole-3-carbonyl)-4-azaspiro[2.5]octane-7-carboxamide]	19.8	–
5.2	COc1cc(-c2cc(C(=O)N3CC[C@H](C(=O)N[C@H]4CC[C@@](O)(C(F)(F)F)CC4)CC34CCC4)n[nH]2)c(F)cn1 (racemic) [Example 486, (S)-5-(5-(5-fluoro-2-methoxypyridin-4-yl)-1H-pyrazole-3-carbonyl)-N-((1r,4S)-4-hydroxy-4-(trifluoromethyl)cyclohexyl)-5-azaspiro[3.5]nonane-8-carboxamide and (R)-5-(5-(5-fluoro-2-methoxypyridin-4-yl)-1H-pyrazole-3-carbonyl)-N-((1r,4R)-4-hydroxy-4-(trifluoromethyl)cyclohexyl)-5-azaspiro[3.5]nonane-8-carboxamide]	44.5	–
508	COc1cc(-c2cc(C(=O)N3CC[C@H](C(=O)NCc4ncc(N5CC(C)NC(C)C5)cn4)CC34CC4)n[nH]2)c(F)cn1 (stereo partly drawn) [Example 447, (7S)—N-((5-(3,5-dimethylpiperazin-1-yl)pyrimidin-2-yl)methyl)-4-(5-(5-fluoro-2-methoxypyridin-4-yl)-1H-pyrazole-3-carbonyl)-4-azaspiro[2.5]octane-7-carboxamide]	3630	–
23.4	COc1cc(-c2cc(C(=O)N3CC[C@H](C(=O)NCc4nccnc4C)CC34CC4)n[nH]2)c(F)cn1 [Example 397, (S)-4-(5-(5-fluoro-2-methoxypyridin-4-yl)-1H-pyrazole-3-carbonyl)-N-((3-methylpyrazin-2-yl)methyl)-4-azaspiro[2.5]octane-7-carboxamide]	59.9	–
14	Cc1cc(-c2c[nH]c(C(=O)N3CCC(C(=O)N[C@H]4CC[C@@](O)(C(F)(F)F)CC4)CC34CC4)n2)c(O)cn1 (stereo partly drawn) [Example 310, 4-(4-(5-hydroxy-2-methylpyridin-4-yl)-1H-imidazole-2-carbonyl)-N-((1r,4r)-4-hydroxy-4-(trifluoromethyl)cyclohexyl)-4-azaspiro[2.5]octane-7-carboxamide]	99	–
305	COc1cc(-c2cc(C(=O)N3CC[C@H](C(=O)NC4CCC5(CCCN5)CC4)CC34CC4)n[nH]2)c(F)cn1 (stereo partly drawn) [Example 348, (S)-4-(5-(5-fluoro-2-methoxypyridin-4-yl)-1H-pyrazole-3-carbonyl)-N-(1-azaspiro[4.5]decan-8-yl)-4-azaspiro[2.5]octane-7-carboxamide]	> 10000	–
681	COc1cc(-c2cc(C(=O)N3CC[C@H](C(=O)NC4CCN(C5COC5)CC4)CC34CC4)n[nH]2)c(F)cn1 [Example 417, (S)-4-(5-(5-fluoro-2-methoxypyridin-4-yl)-1H-pyrazole-3-carbonyl)-N-(1-(oxetan-3-yl)piperidin-4-yl)-4-azaspiro[2.5]octane-7-carboxamide]	1160	–
